Key:
[1] = refractive index (Na D-line) (dimensionless); xn = mol fraction of the nth substance listed; details: 101 kPa, Liquid
[2] = xn = mol fraction of the nth substance listed; details: 101 kPa, Liquid

COc1ccccc1 [anisole] + CCCO
Details | mass density, 298.15 K [kg/m3] | mass density, 303.15 K [kg/m3] | mass density, 308.15 K [kg/m3] | refractive index, 298.15 K | refractive index, 303.15 K | refractive index, 308.15 K | speed of sound, 298.15 K [m/s] | viscosity, 298.15 K [mPa·s] | viscosity, 303.15 K [mPa·s] | viscosity, 308.15 K [mPa·s]
[1], x1 = 0.1036 | – | – | – | 1.4013 | 1.3989 | 1.3966 | – | – | – | –
[1], x1 = 0.2003 | – | – | – | 1.4176 | 1.4153 | 1.4129 | – | – | – | –
[1], x1 = 0.3055 | – | – | – | 1.4284 | 1.4314 | 1.4287 | – | – | – | –
[1], x1 = 0.4053 | – | – | – | 1.4459 | 1.4458 | 1.4426 | – | – | – | –
[1], x1 = 0.5096 | – | – | – | 1.461 | 1.4578 | 1.4542 | – | – | – | –
[1], x1 = 0.6015 | – | – | – | 1.4737 | 1.4704 | 1.4673 | – | – | – | –
[1], x1 = 0.7071 | – | – | – | 1.4864 | 1.482 | 1.4793 | – | – | – | –
[1], x1 = 0.8023 | – | – | – | 1.4955 | 1.493 | 1.4897 | – | – | – | –
[1], x1 = 0.8939 | – | – | – | 1.5046 | 1.5014 | 1.499 | – | – | – | –
[1], x1 = 1 | – | – | – | 1.5137 | 1.5113 | 1.5088 | – | – | – | –
[2], x1 = 0.1036 | 816.88 | 812.68 | 808.48 | – | – | – | 1223 | 1.564 | 1.392 | 1.242
[2], x1 = 0.2003 | 835.8 | 831.49 | 827.18 | – | – | – | 1232 | 1.352 | 1.198 | 1.078
[2], x1 = 0.3055 | 856.97 | 852.54 | 848.11 | – | – | – | 1258 | 1.166 | 1.094 | 0.961
[2], x1 = 0.4053 | 876.55 | 872.04 | 867.53 | – | – | – | 1278 | 1.069 | 0.98 | 0.879
[2], x1 = 0.5096 | 897.74 | 893.14 | 888.55 | – | – | – | 1297 | 1.003 | 0.921 | 0.838
[2], x1 = 0.6015 | 915.39 | 910.74 | 906.1 | – | – | – | 1314 | 0.989 | 0.903 | 0.821
[2], x1 = 0.7071 | 934.31 | 929.62 | 924.94 | – | – | – | 1330 | 0.947 | 0.859 | 0.802
[2], x1 = 0.8023 | 952.23 | 947.51 | 942.78 | – | – | – | 1350 | 0.943 | 0.861 | 0.795
[2], x1 = 0.8939 | 970.23 | 965.5 | 960.74 | – | – | – | 1370 | 0.932 | 0.869 | 0.792
[2], x1 = 1 | 989.15 | 984.45 | 979.73 | – | – | – | 1412 | 0.988 | 0.913 | 0.854

CCCCO [butan-1-ol] + COc1ccccc1
x2 = 0
Details | mass density, 298.15 K [kg/m3] | mass density, 303.15 K [kg/m3] | mass density, 308.15 K [kg/m3] | refractive index, 298.15 K | refractive index, 303.15 K | refractive index, 308.15 K | speed of sound, 298.15 K [m/s] | viscosity, 298.15 K [mPa·s] | viscosity, 303.15 K [mPa·s] | viscosity, 308.15 K [mPa·s]
[1] | – | – | – | 1.3968 | 1.3944 | 1.3923 | – | – | – | –
[2] | 806.12 | 802.28 | 798.41 | – | – | – | 1246 | 2.585 | 2.284 | 1.981

CC(C)CCO [3-methylbutan-1-ol] + COc1ccccc1
Details | mass density, [2] [kg/m3] | refractive index, [1] | speed of sound, [2] [m/s] | viscosity, [2] [mPa·s]
298.15 K, x2 = 0 | 807.2 | 1.405 | 1241 | 3.835
298.15 K, x2 = 0.103 | 825.87 | 1.4159 | 1258 | 2.766
298.15 K, x2 = 0.2001 | 843.32 | 1.4269 | 1275 | 2.153
298.15 K, x2 = 0.3022 | 861.74 | 1.4378 | 1292 | 1.736
298.15 K, x2 = 0.3995 | 879.31 | 1.4487 | 1309 | 1.43
298.15 K, x2 = 0.4944 | 896.5 | 1.4579 | 1327 | 1.254
298.15 K, x2 = 0.5995 | 915.66 | 1.4688 | 1344 | 1.136
298.15 K, x2 = 0.6915 | 932.47 | 1.4797 | 1361 | 1.046
298.15 K, x2 = 0.8022 | 952.8 | 1.4906 | 1378 | 1.005
298.15 K, x2 = 0.9044 | 971.6 | 1.5015 | 1394 | 0.956
303.15 K, x2 = 0 | 803.45 | 1.403 | – | 3.261
303.15 K, x2 = 0.103 | 821.94 | 1.4138 | – | 2.408
303.15 K, x2 = 0.2001 | 839.25 | 1.4247 | – | 1.885
303.15 K, x2 = 0.3022 | 857.55 | 1.4355 | – | 1.544
303.15 K, x2 = 0.3995 | 875.01 | 1.4463 | – | 1.253
303.15 K, x2 = 0.4944 | 892.11 | 1.4575 | – | 1.135
303.15 K, x2 = 0.5995 | 911.16 | 1.468 | – | 1.03
303.15 K, x2 = 0.6915 | 929.01 | 1.4788 | – | 0.956
303.15 K, x2 = 0.8022 | 948.15 | 1.4896 | – | 0.938
303.15 K, x2 = 0.9044 | 966.9 | 1.5005 | – | 0.881
308.15 K, x2 = 0 | 791.86 | – | – | –
308.15 K, x2 = 0.1036 | 808.48 | 1.3966 | – | 1.242
308.15 K, x2 = 0.2003 | 827.18 | 1.4129 | – | 1.078
308.15 K, x2 = 0.3055 | 848.11 | 1.4287 | – | 0.961
308.15 K, x2 = 0.4053 | 867.53 | 1.4426 | – | 0.879
308.15 K, x2 = 0.5096 | 888.55 | 1.4542 | – | 0.838
308.15 K, x2 = 0.6015 | 906.1 | 1.4673 | – | 0.821
308.15 K, x2 = 0.7071 | 924.94 | 1.4793 | – | 0.802
308.15 K, x2 = 0.8023 | 942.78 | 1.4897 | – | 0.795
308.15 K, x2 = 0.9044 | 960.74 | 1.499 | – | 0.792

COc1ccccc1 [anisole] + CC(C)O
Details | mass density, 298.15 K [kg/m3] | mass density, 303.15 K [kg/m3] | mass density, 308.15 K [kg/m3] | refractive index, 298.15 K | refractive index, 303.15 K | refractive index, 308.15 K | speed of sound, 298.15 K [m/s] | viscosity, 298.15 K [mPa·s] | viscosity, 303.15 K [mPa·s] | viscosity, 308.15 K [mPa·s]
[1], x1 = 0.0964 | – | – | – | 1.3925 | 1.3901 | 1.3879 | – | – | – | –
[1], x1 = 0.1995 | – | – | – | 1.4115 | 1.4075 | 1.4064 | – | – | – | –
[1], x1 = 0.2995 | – | – | – | 1.4275 | 1.4244 | 1.4226 | – | – | – | –
[1], x1 = 0.3965 | – | – | – | 1.4427 | 1.4399 | 1.438 | – | – | – | –
[1], x1 = 0.4947 | – | – | – | 1.4571 | 1.4535 | 1.451 | – | – | – | –
[1], x1 = 0.5932 | – | – | – | 1.4701 | 1.467 | 1.465 | – | – | – | –
[1], x1 = 0.6966 | – | – | – | 1.482 | 1.4793 | 1.4763 | – | – | – | –
[1], x1 = 0.8069 | – | – | – | 1.495 | 1.4923 | 1.4884 | – | – | – | –
[1], x1 = 0.9052 | – | – | – | 1.5049 | 1.5018 | 1.4999 | – | – | – | –
[1], x1 = 1 | – | – | – | 1.5137 | 1.5113 | 1.5088 | – | – | – | –
[2], x1 = 0.0964 | 809.04 | 804.55 | 799.99 | – | – | – | 1168 | 1.526 | 1.335 | 1.178
[2], x1 = 0.1995 | 836.66 | 832.04 | 827.34 | – | – | – | 1195 | 1.236 | 1.101 | 0.988
[2], x1 = 0.2995 | 861.3 | 856.56 | 851.78 | – | – | – | 1223 | 1.111 | 1 | 0.906
[2], x1 = 0.3965 | 882.77 | 877.97 | 873.12 | – | – | – | 1250 | 1.019 | 0.923 | 0.838
[2], x1 = 0.4947 | 903.09 | 898.25 | 893.38 | – | – | – | 1277 | 0.959 | 0.872 | 0.798
[2], x1 = 0.5932 | 921.89 | 917.04 | 912.14 | – | – | – | 1304 | 0.942 | 0.864 | 0.792
[2], x1 = 0.6966 | 940.52 | 935.67 | 930.78 | – | – | – | 1331 | 0.91 | 0.837 | 0.775
[2], x1 = 0.8069 | 958.9 | 954.07 | 949.22 | – | – | – | 1358 | 0.879 | 0.81 | 0.742
[2], x1 = 0.9052 | 974.58 | 969.52 | 965.01 | – | – | – | 1384 | 0.847 | 0.783 | 0.72
[2], x1 = 1 | 989.15 | 984.45 | 979.73 | – | – | – | 1412 | 0.988 | 0.913 | 0.854
